Reference: patent publication US8247211B2, “Glycopeptide antibiotics” (American Cyanamid Company, priority 2001, dated 2012)

Key:
Test in all cases: In vitro antibacterial evaluation: minimum inhibitory concentration (MIC), broth dilution method
Assay type in all cases: cell-based
Enterococcus sp. = details: 18 hours at 35° C.
Method in brief: (§1)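 MIC read as lowest drug level preventing visible growth. Organisms at 5×10^5 CFU/mL were exposed to a 64-0.06 μg/mL dilution series in Muller-Hinton II […] following NCCLS broth dilution standard M7-A2.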

Escherichia coli = details: 18 hours at 35° C.
Method in brief: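 First, organisms are seeded at 5×10^5 CFU/mL into Muller-Hinton II […]. Next, antibiotic is applied across 64-0.06 μg/mL by broth dilution (NCCLS M7-A2). Finally, the lowest inhibitory concentration is recorded as MIC.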

Streptococcus sp. = details: 18 hours at 35° C.
Method in brief: as §1

Staphylococcus sp. = test system: Staphylococcus sp.
Method in brief: as §1

[1] = broth dilution, inoculum 5×10^5 CFU/mL

CC(C)CC(=O)OC1C(O)C(OC2C(CO)OC(Oc3ccc(CC4NC(=O)C(C(C)c5ccccc5)NC(=O)CNC(=O)C(CO)NC(=O)C(C(O)C5CNC(=N)N5C5OC(CO)C(O)C(O)C5O)NC(=O)C(C(O)C5CNC(=N)N5)NC4=O)cc3)C(O)C2O)OC2COC3(OC21)C1CC2CC(C1)CC3C2 (stereo not drawn) [Example 218, Cyclo[glycyl-β-methylphenylalanyl-O-[4-O-[4,6-O-(2-adamantylidene)-3-O-(3-methyl-butanoyl)-hexopyranosyl]hexopyranosyl]tyrosyl-3-(2-iminoimidazolidin-4-yl)-seryl-3-(3-hexopyranosyl-2-iminoimidazolidin-4-yl)serylseryl]]
0.12 µg/mL: MIC Streptococcus pneumoniae (ATCC 6301) (Streptococcus sp.; Streptococcus pneumoniae (ATCC 6301)) | MIC Streptococcus pneumoniae (GC 4565) (Streptococcus sp.; Streptococcus pneumoniae (GC 4565)) | MIC Streptococcus pneumoniae (ATCC 6301) (Streptococcus sp.; [1]) | MIC Streptococcus pneumoniae (GC 4565) (Streptococcus sp.; [1])
0.25 µg/mL: MIC Streptococcus agalactiae (GC 4564) (Streptococcus sp.; Streptococcus agalactiae (GC 4564)) | MIC Streptococcus agalactiae (GC 4564) (Streptococcus sp.; [1])
64 µg/mL: MIC Escherichia coli (ATCC 25922) (Escherichia coli; Escherichia coli (ATCC 25922))
8 µg/mL: MIC Escherichia coli (GC 4560) (Escherichia coli; Escherichia coli (GC 4560)) | MIC Coagulase Negative Staphylococcus (GC 4551) (Staphylococcus sp.; strain GC 4551)
>64 µg/mL: MIC Escherichia coli (GC 4559) (Escherichia coli; Escherichia coli (GC 4559))
0.5 µg/mL: MIC Streptococcus pyogenes (GC 4563) (Streptococcus sp.; Streptococcus pyogenes (GC 4563)) | MIC Streptococcus pyogenes (GC 4563) (Streptococcus sp.; [1])
<0.06 µg/mL: MIC Streptococcus pneumoniae (GC 1894) (Streptococcus sp.; Streptococcus pneumoniae (GC 1894)) | MIC Streptococcus pneumoniae (GC 1894) (Streptococcus sp.; [1])
4 µg/mL: MIC Enterococcus avium (GC 4558) (Enterococcus sp.; Enterococcus avium (GC 4558)) | MIC Enterococcus faecalis (ATCC 29212) (Enterococcus sp.; Enterococcus faecalis (ATCC 29212)) | MIC Enterococcus faecalis (GC 2242) (Enterococcus sp.; Enterococcus faecalis (GC 2242)) | MIC Enterococcus faecalis (GC 2691) (Enterococcus sp.; Enterococcus faecalis (GC 2691)) | MIC Enterococcus faecalis (GC 3059) (Enterococcus sp.; Enterococcus faecalis (GC 3059)) | MIC Enterococcus faecalis (GC 4552) (Enterococcus sp.; Enterococcus faecalis (GC 4552)) | MIC Enterococcus faecalis (GC 4553) (Enterococcus sp.; Enterococcus faecalis (GC 4553)) | MIC Enterococcus faecalis (GC 4554) (Enterococcus sp.; Enterococcus faecalis (GC 4554)) | MIC Enterococcus faecalis (GC 6189) (Enterococcus sp.; Enterococcus faecalis (GC 6189)) | MIC Enterococcus faecium (GC 2243) (Enterococcus sp.; Enterococcus faecium (GC 2243)) | MIC Enterococcus faecium (GC 4556) (Enterococcus sp.; Enterococcus faecium (GC 4556)) | MIC Enterococcus faecium (GC 4557) (Enterococcus sp.; Enterococcus faecium (GC 4557)) | MIC Enterococcus avium (GC 4558) (Enterococcus sp.; [1]) | MIC Enterococcus faecalis (ATCC 29212) (Enterococcus sp.; [1]) | MIC Enterococcus faecalis (GC 2242) (Enterococcus sp.; [1]) | MIC Enterococcus faecalis (GC 2691) (Enterococcus sp.; [1]) | MIC Enterococcus faecalis (GC 3059) (Enterococcus sp.; [1]) | MIC Enterococcus faecalis (GC 4552) (Enterococcus sp.; [1]) | MIC Enterococcus faecalis (GC 4553) (Enterococcus sp.; [1]) | MIC Enterococcus faecalis (GC 4554) (Enterococcus sp.; [1]) | MIC Enterococcus faecalis (GC 6189) (Enterococcus sp.; [1]) | MIC Enterococcus faecium (GC 2243) (Enterococcus sp.; [1]) | MIC Enterococcus faecium (GC 4556) (Enterococcus sp.; [1]) | MIC Enterococcus faecium (GC 4557) (Enterococcus sp.; [1]) | MIC Staphylococcus aureus (ATCC 29213) (Staphylococcus sp.; strain ATCC 29213) | MIC Staphylococcus aureus (GC 1131) (Staphylococcus sp.; strain GC 1131) | MIC Staphylococcus aureus (GC 3051) (Staphylococcus sp.; strain GC 3051) | MIC Staphylococcus aureus (GC 3053) (Staphylococcus sp.; strain GC 3053) | MIC Staphylococcus aureus (GC 4541) (Staphylococcus sp.; strain GC 4541) | MIC Staphylococcus aureus (GC 4542) (Staphylococcus sp.; strain GC 4542) | MIC Staphylococcus aureus-SMITH (GC 4543) (Staphylococcus sp.; strain GC 4543) | MIC Staphylococcus aureus (GC 4544) (Staphylococcus sp.; strain GC 4544) | MIC Staphylococcus aureus (GC 4545) (Staphylococcus sp.; strain GC 4545) | MIC Staphylococcus haemolyticus (GC 4546) (Staphylococcus sp.; strain GC 4546) | MIC Coagulase Negative Staphylococcus (GC 4547) (Staphylococcus sp.; strain GC 4547) | MIC Coagulase Negative Staphylococcus (GC 4548) (Staphylococcus sp.; strain GC 4548) | MIC Coagulase Negative Staphylococcus (GC 4549) (Staphylococcus sp.; strain GC 4549) | MIC Coagulase Negative Staphylococcus (GC 6257) (Staphylococcus sp.; strain GC 6257)
